Laboratory results: patent US9243278B2, “Mechanotransduction by the synergistic action of heterotypic cell interactions” (Brown University, priority 2011, dated 2016)
“Also recorded” adds a separate entry of the source.

Key:
[1] = system: normal human fibroblasts (NHF); assay: toroid-on-cone cell power assay, homotypic NHF toroids; type: cell-based
Method: Toroid molds suitable for side view microcopy were designed as previously described (9). Toroid molds were designed using the computer aided design (CAD) software Solid Works (Solid Works Corporation, Concord, Mass., USA). The mold was designed with 12 features to create wells. Each feature is a rounded edged (350 μm in diameter) cylinder (1.1 mm) with a cone indent in the center. The slope of the central cone was 65° and it is 650 μm in diameter. CAD files were used to produce thermowax molds with a rapid prototyping machine (3D Systems Corporation, Valencia, Calif.).
Wax molds were used to cast 13% polyacrylamide gels. Gels were removed from wax molds and transferred to six well culture plates. Each of the resulting wells is a circular trough confined by the hydrogel wall at the outer edge of the trough and by a conical peg on the inner edge of the trough. The gels were rinsed with fresh culture medium and then equilibrated overnight at 37° C. in 4 ml of DMEM supplemented with 1% penicillin/streptomycin (pen/strep). After equilibration, the medium was removed, and the gels were rinsed with fresh medium.
NHFs (passage 4-10), derived from neonatal foreskins, and H35s (passage 5-11) were grown in T-175 flasks in DMEM with 10% FBS and 1% pen/strep at 37° C. and 10% CO2. Cells were removed from flasks using a standard trypsin process. Briefly, cells were exposed to 0.05% trypsin for 10 minutes, quenched with serum containing medium, spun down at 800 rpm for 6 minutes, resuspended in a known volume of medium, and counted using a hemocytometer. Cell solution (70 μl) was added to each hydrogel. After 30 minutes, 4 ml of fresh medium was added to each of the wells. After seeding, images of the samples were taken every 2 hours for about 8 hours. Pure NHF microtissues were seeded with about 10,500, about 21,000, about 25,000 or about 35,000 cells/well. Heterotypic microtissues were seeded at ratios of about 1:1, about 2:3, about 1:4; about 1:6, about 1:10, about 1:16, and about 1:20 (NHF:H35). The seeding per well for heterotypic samples was kept constant at about 21,000 cells/well. For TGF-β1 experiments, NHFs and H35s were incubated for 48 hours in DMEM with 10% FBS, 1% penn/strep and 5 ng/ml human recombinant TGF-β1 (Invitrogen, Carlsbad, Calif., USA), passed according to standard protocol, and seeded at about 21,000 cells/well. NHFs^TGF-β1 coseeded with H35s were seeded in DMEM with 10% FBS, 1% penn/strep without additional TGF-β1. […]
Convential view fluorescent and phase images were captured using Carl Zeiss Axio Observer Z1 with an AxioCam Mrm camera (Carl Zeiss MicroImaging, Thornwood, N.Y., USA). To capture side view images, a Mitutoyo FS-110 microscope was modified to lie on its back and a translational stage was added to hold samples. Samples were imaged in bright field through the eyepiece of the microscope. ImageJ Software (NIH Rasband, W.S. USA) was used to measure the height of the toroid, the major radius, and the minor radius of the toroid.
The range of power exerted by increasing numbers of NHFs (>3 fold) in a homotypic environment by seeding the cells into non-adhesive hydrogels with toroid recesses, each with a central cone (65° slope) was measured. Cells settled and formed cell-cell adhesions that drove the toroid shaped microtissue up the cone. The power necessary to move the NHF toroid up the cone as P=ΔW/Δt was calculated, where ΔW is work performed against gravity to move a toroid of a known mass to a given height, and Δt is the time over which the work is performed (9). […] Toroid power increased linearly as cell number increased, but power per NHF (cell power) was independent of cell number, with a peak cell power of 0.22±0.02 fJ/hr (2 hrs) and an average cell power (over all time points) of 0.16±0.03 fJ/hr.

NHFs and H35s = assay: self-sorting of fluorescently labeled NHFs and H35s in microtissues; type: cell-based, human, rat
Method: For sorting experiments, NHFs and H35s were incubated with 2.5 μM CellTracker™ Red CMPTX and CellTracker™ Green CMFDA™ (Invitrogen, Carlsbad, Calif., USA), respectively, in serum free media for 30 minutes. After incubation, the dye was aspirated and the cells equilibrated in serum media for 1 hour prior to passing. For NHF^TGF-β1:H35 sorting experiments NHFs were incubated for 48 hours in DMEM with 10% FBS, 1% penn/strep and 5 ng/ml TGF-β1. After incubation the NHF^TGF-β1 and H35s were fluorescently labeled and passed as previously described.
Convential view fluorescent and phase images were captured using Carl Zeiss Axio Observer Z1 with an AxioCam Mrm camera (Carl Zeiss MicroImaging, Thornwood, N.Y., USA). To capture side view images, a Mitutoyo FS-110 microscope was modified to lie on its back and a translational stage was added to hold samples. Samples were imaged in bright field through the eyepiece of the microscope. […]
Using self sorting to identify drugs, TGF-β1 is a growth factor linked to fibrosis and well known for its ability to increase cell mediated contraction and synthesis of extracellular matrix proteins such as collagen. […] Also, as self-sorting proceeds the quantity of heterotypic interface decreases and the homotypic interface increases as cells partition. […]

[2] = homotypic toroid 100% NHF^TGF-β

transforming growth factor-β1 [TGF-β1]
height of the NHF^TGF-β1 toroid relative to untreated NHFs ([1]; 2 hours, NHFs treated 48 hours in 5 ng/ml TGF-β1): twice as far; also recorded: increased two fold | average cell power ([1]; NHF^TGF-β1): 0.16 ± 0.21 fJ/h | peak cell power ([1]; NHF^TGF-β1, 2 hrs): 0.47 fJ/h | Toroid Power ([1]; NHF^TGF-β1 homotypic toroid, two hours): 9.82 ± 1.32 pJ/h | increase in NHF cell power in the homotypic environment ([1]; TGF-β treatment alone): about 1.9 fold | change in NHF cell power relative to untreated controls (in words) ([1]; homotypic NHF toroids treated with TGF-β1): doubling in cell power; also recorded: increased only two fold; also recorded: doubled; also recorded: doubles cell power | Enhancement in NHF Cell Power [1, 2]: 0.23 fJ/hr/NHF | Toroid Power [1, 2]: 9.80 pJ/h | Enhancement in Toroid Power ([1]; homotypic toroid 100% NHF^TGF-β versus control): 4.7 pJ/h | Fold Increase in NHF Cell Power ([1]; homotypic toroid 100% NHF^TGF-β, effects of TGF-β alone): 1.9x | self-sorting of NHFs and H35s in heterotypic toroids (NHFs and H35s; NHF^TGF-β1:H35 toroids (1:10), up to 24 hours): prevented sorting; also recorded: reduced; also recorded: sorting was eliminated | self-sorting of NHFs and H35s in spheroids (NHFs and H35s; mixes (1:1) of NHFs and H35s treated with TGF-β1): inhibited self-sorting
